Measurements as given in patent publication US20260069728A1, “MULTI-TARGETING COMPOUND AND USE THEREOF” (Chengdu Shetai Medical Technology Co., Ltd., priority 2023, published 2026).
*1 amine or outer side, *2 acyl side, *3 side chain or, on linkers, in order; H or OH if unused. Where a SMILES comes first, the peptide text is derived from it. Bridges are numbered along the chain shown (N, C = ends). [ ]: non-standard residue; d: D form. The star is where a group is joined. X1 = N#C[C@@H]1CC(F)(F)CN1C(=O)CNC(=O)c1ccnc2ccc(OCCCN3CCN(*)CC3)cc12; DOTA = O=C(O)CN1CCN(CC(=O)O)CCN(CC(=O)*)CCN(CC(=O)O)CC1; 2Nal = N[C@@H](Cc1ccc2ccccc2c1)C(=O)O; Cit = NC(=O)NCCC[C@H](N)C(=O)O; Suc = O=C(CCC(=O)[*:2])[*:1]; AEEA = NCCOCCOCC(=O)O

Tested on: SUM149PT human breast cancer cell line
Assay: Cell uptake and inhibition assay, SUM149PT
Type: cell-based
Procedure: The cell lines involved in the cell experiments in the test examples include: SUM149PT human breast cancer cell line, HUTU-80 human duodenal adenocarcinoma cell line, and U-118 MG human brain astrocytoma/glioblastoma cell line.
SUM149PT: Complete medium was formulated using DMEM high-glucose medium, 10% FBS, and a penicillin-streptomycin solution. The cells were cultured in a constant temperature incubator at 37° C. with 5% CO2. The culture medium was regularly replaced, and the cells were passaged. The culture medium was generally changed every 2 to 3 days. The growth of the tumor cells was observed daily under a microscope, including monitoring cell growth status, checking for adherence, examining cell morphology for any abnormalities, checking for contamination, and observing medium color for any abnormalities. Cells were passaged when they reached 80-90% confluence.
When cell confluence in the culture flask reached 80%, the cells were digested and centrifuged, and the supernatant was removed. An appropriate amount of medium was added to dilute so that each well contained 500 μL of medium for plating. After thorough mixing by pipetting, the cell suspension was seeded into a 24-well plate at a density of 5×10^5 cells per well. The plate was then placed into the incubator for continued growth. The cells were ready for cellular experiments when they reached 80% confluence.
(1) The cell uptake assay established four incubation time points: 15, 30, 60, and 120 minutes, respectively. For each time point, four groups were set up: non-inhibition group, a first single inhibition group (FAP single inhibition), a second single inhibition group (CXCR4/GRPR/αvβ3 single inhibition), and a dual inhibition group (FAP inhibitor+CXCR4/GRPR/αvβ3 inhibitor). Each group at each time point was set up with 3 triplicate wells.
(2) Cells were plated into a 24-well plate according to the cell plating procedure described above.
(3) The original culture medium was removed from the 24-well plate. Then, 400 μL of 100 mg/mL skimmed milk solution was added to each well for blocking for one hour. After removing the skimmed milk solution, each of the wells was washed three times by adding 400 μL of PBS solution. Subsequently, 146 μL of FBS-free medium was added to each well. Next, the non-inhibition group received 4 μL of cold PBS per well, while the first single inhibition group, the second single inhibition group, and the dual inhibition group received the following additions per well according to Table 3: 2 μL of non-radiolabeled first single inhibitor solution and 2 μL of cold PBS: 2 μL of non-radiolabeled second single inhibitor solution and 2 μL of cold PBS; 2 μL of non-radiolabeled first single inhibitor solution (10 mM) and 2 μL of non-radiolabeled second single inhibitor solution (10 mM). The plate was incubated at room temperature for one hour.
(4) The ^68Ga- and ^177Lu-labeled radioactive ligands were formulated by adding FBS-free medium to achieve a radioligand system concentration of 20 nM. Then, 50 μL of this radioligand system was added to each well. Each group was incubated according to the designated time points: 15, 30, 60, and 120 minutes.
(5) After the incubation was complete, the supernatant was removed, and the wells were washed three times with 400 μL of PBS solution. Then, 200 μL of 1 M NaOH solution was added to each well for cell lysis. […] Each well was then washed once with 400 μL of PBS solution, and this wash solution was also added to the corresponding radioimmunoassay tubes.
(6) The radioactivity in the cells was measured using a γ counter. A bar graph was plotted using GraphPad Prism software. The inhibition rate for each inhibition group was calculated as follows: Inhibition Rate (%)=(1−[Radioactive Count of the Inhibition Group]/[Radioactive Count of the Non-inhibition Group])×100%. […]

N#C[C@@H]1CC(F)(F)CN1C(=O)CNC(=O)c1ccnc2ccc(OCCCN3CCN(C(=O)CCC(=O)N[C@@H](CCCCNC(=O)CN4CCN(CC(=O)O)CCN(CC(=O)O)CCN(CC(=O)O)CC4)C(=O)NCCOCCOCC(=O)NCCOCCOCC(=O)N[C@@H](CCCNC(=N)N)C(=O)N[C@@H](CCCNC(=N)N)C(=O)N[C@@H](Cc4ccc5ccccc5c4)C(=O)N[C@H]4CSSC[C@@H](C(=O)N[C@@H](CCCNC(=N)N)C(N)=O)NC(=O)[C@H](CCCNC(N)=O)NC(=O)[C@H](CCCNC(=N)N)NC(=O)[C@H](Cc5ccc(O)cc5)NC(=O)[C@@H]5CCCN5C(=O)[C@H](CCCCN)NC(=O)[C@H](CCCCN)NC(=O)[C@H](CCCNC(N)=O)NC(=O)[C@H](Cc5ccc(O)cc5)NC4=O)CC3)cc12 [^68Ga-SDYD01, metal not drawn] ({X1-Suc}-K(DOTA)[AEEA][AEEA]RR[2Nal]CY[Cit]KKPYR[Cit]CR-NH2; disulfide 7-16)
cell uptake, comparison of non-inhibition, FAP single, CXCR4 single and dual inhibition groups (in words) (FAPI-04 and T140 as inhibitors): dual inhibition group exhibited the lowest uptake | cell uptake over incubation time (in words) (non-inhibition group, 15-120 minutes): slowly increased and reached a plateau from 30 to 120 minutes
